In article PMC8468783, “New Flavone C-Glycosides from Scleranthus perennis and Their Anti-Collagenase Activity” (Molecules, 2021):

Legend:
[1] = biological target: collagenase from Clostridium histolyticum; assay: In vitro collagenase inhibition assay (spectrophotometric, FALGPA substrate); assay type: biochemical; details: mean ± SD, triplicate; 0.1 U/mL collagenase, 0.8 mM FALGPA, Tricine buffer pH 7.5, 37 °C, 20 min incubation, absorbance at 335 nm; read-out: Anti-collagenase activity IC50
Procedure: The previous spectrophotometric procedure was modified and subsequently employed to determine the anti-collagenase activity of the isolated compounds [23]. This assay was performed in 50 mM Tricine buffer (pH = 7.5; 400 mM NaCl, 10 mM CaCl2). The mixed solution included 25 µL of 0.1 U/mL collagenase from Clostridium histolyticum, 25 µL Tricine buffer, and 25 µL of various levels of the sample were incubated at 37 °C for 20 min. After incubation, 75 µL of 0.8 mM FALGPA substrate was present. Then, absorbance was measured at 335 nm wavelength. Negative control was performed using Tricine buffer instead of sample and positive control was conducted with EGCG.
The percentage inhibition for assay was calculated by: Enzyme inhibition activity (%) = [1 − […]] × 100% where C is the negative control and S is the sample.

SMILES	melting point	IC50 [1]
COc1cc(-c2cc(=O)c3c(O)cc(O)c(C4OCC(O)C(O)C4OC4OC(CO)C(OC(C)=O)C(O)C4O)c3o2)ccc1OC(C)=O [Compound 4, 5,7-dihydroxy-3′-methoxy-4′-acetoxyflavone-8-C-β-D-xylopyranoside-2′′-O-(4′′′-acetoxy)-glucoside]	164.6 to 166.2 °C	36.1 ± 0.78 µM
COc1cc(-c2cc(=O)c3c(O)cc(O)c(C4OCC(O)C(O)C4OC4OC(CO)C(O)C(O)C4O)c3o2)ccc1OC(C)=O [Compound 3, 5,7-dihydroxy-3′-methoxy-4′-acetoxyflavone-8-C-β-D-xylopyranoside-2′′-O-glucoside]		48.3 ± 1.05 µM
O=C(O[C@@H]1Cc2c(O)cc(O)cc2O[C@@H]1c1cc(O)c(O)c(O)c1)c1cc(O)c(O)c(O)c1 [EGCG, Epigallocatechin gallate, reference compound]		34.32 ± 0.21 µM
CC(=O)Oc1ccc(-c2cc(=O)c3c(O)cc(O)c(C4OCC(O)C(O)C4OC4OC(CO)C(O)C(O)C4O)c3o2)cc1O [Compound 1, 5,7,3′-trihydroxy-4′-acetoxyflavone-8-C-β-D-xylopyranoside-2′′-O-glucoside]	188.5 to 189 °C	70.2 ± 1.37 µM
COc1ccc(C(C)=O)c(O[C@@H]2O[C@H](CO[C@@H]3OC[C@](O)(CO)[C@H]3O)[C@@H](O)[C@H](O)[C@H]2O)c1 [Compound 5, apiopaenonside]		> 125 µM
COc1ccc(-c2cc(=O)c3c(O)cc(O)c(C4OCC(O)C(O)C4OC4OC(CO)C(O)C(O)C4O)c3o2)cc1O [Compound 2, 5,7,3′-trihydroxy-4′-methoxyflavone-8-C-β-D-xylopyranoside-2′′-O-glucoside]	178.5 to 179.2 °C	64.9 ± 1.08 µM
